Experimental data as given in patent publication US20040248887A1, “Inhibitors of cathepsin S” (IRM LLC, priority 2003, published 2004).
Like-named read-outs stand apart in the source and are kept apart here.

Tests used:
Format in all cases: biochemical
[1] = molecular target: T1, Cathepsin K (Homo sapiens, UniProt P43235); test: Cathepsin K inhibition, fluorogenic peptide substrate kinetic assay; settings: Table III; Cathepsin K inhibition constant, pH5.5; read-out: Ki Cat. K
T1 sequence (P43235 115-329): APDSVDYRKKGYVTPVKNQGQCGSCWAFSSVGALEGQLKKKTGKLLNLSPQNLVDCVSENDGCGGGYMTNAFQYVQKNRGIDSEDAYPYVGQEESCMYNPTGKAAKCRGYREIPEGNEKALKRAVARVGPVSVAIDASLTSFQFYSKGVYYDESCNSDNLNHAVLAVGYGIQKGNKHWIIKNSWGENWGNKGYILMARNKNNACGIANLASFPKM
Procedure: (§1) The optimal substrate for cathepsin K, acetyl-lysine-histidine-proline-lysine-amino carbamoyl coumarin, was identified from screening a combinatorial library of fluorogenic peptide substrates (Harris, J. L., B. J. Backes, et al., Proc Natl Acad Sci U S A 2000, 97(14), 7754-9). Kinetic measurements are performed in a total reaction volume of 30 μl in 384-well microtiter plates. […] The reactions are initiated by adding the substrate, acetyl-lysine-histidine-proline-lysine-amino carbamoyl coumarin, to a final concentration of 40 μM. The rate of substrate hydrolysis is measured by monitoring the increase in fluorescence at an excitation wavelength of 380 nm and an emission wavelength of 450 nm that results from cleavage of the aniline bond in the substrate by the enzyme. The apparent inhibition constants for the compounds are determined from the enzyme progress curves (Kuzmic, P., K. C. Elrod, et al., Anal Biochem 2000, 286(1), 45-50) and are then used to calculate the inhibition constants for competitive inhibitors.

[2] = molecular target: Cathepsin L (Homo sapiens, UniProt P07711); test: Cathepsin L inhibition, fluorogenic peptide substrate kinetic assay; settings: Table III; Cathepsin L inhibition constant, pH5.5; read-out: Ki Cat. L
Procedure: as §1, with “Kinetic” for “The optimal substrate for cathepsin K, acetyl-lysine-histidine-proline-lysine-amino carbamoyl coumarin, was identified from screening a combinatorial library of fluorogenic peptide substrates (Harris, J. L., B. J. Backes, et al., Proc Natl Acad Sci U S A 2000, 97(14), 7754-9). Kinetic”, “acetyl-histidine-lysine-phenylalanine-lysine-amino” for “acetyl-lysine-histidine-proline-lysine-amino”, “20” for “40”

[3] = molecular target: Cathepsin S (Homo sapiens, UniProt P25774); test: Cathepsin S inhibition, fluorogenic peptide substrate kinetic assay; settings: Cathepsin S inhibition constant, pH5.5, read-out: Ki Cat. S
Outline: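 Ki values derive from apparent constants fitted to progress curves, corrected for competition with substrate via [S] and Km. Kinetics were monitored at 380 nm excitation/450 nm emission, after substrate addition (Ac-HPVK-ACC, 50 μM final) to start the reaction.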

[4] = molecular target: Cathepsin B (Homo sapiens, UniProt P07858); test: Cathepsin B inhibition, fluorogenic peptide substrate kinetic assay; settings: Table III; Cathepsin B inhibition constant, pH5.5; read-out: Ki Cat. B
Procedure: The optimal substrate for cathepsin B, acetyl-histidine-proline-valine-lysine-amino carbamoyl coumarin, was identified from screening a combinatorial library of fluorogenic peptide substrates (Harris, J. L., B. J. Backes, et al., Proc Natl Acad Sci USA 2000, 97(14), 7754-9). Kinetic measurements are performed in a total reaction volume of 30 μl in 384-well microtiter plates. Cathepsin B, at a final concentration of 1.5 nM (active site), is incubated with the compounds at twelve varying concentrations in a buffer containing 100 mM NaAc (pH5.5), 1 mM EDTA, 100 mM NaCl, 0.01% Brij-35 for 20 minutes at room temperature. Control reactions in the absence of inhibitor are performed in replicates of 24. The reactions are initiated by adding the substrate, acetyl-histidine-proline-valine-lysine-amino carbamoyl coumarin, to a final concentration of 10 μM. The rate of substrate hydrolysis is measured by monitoring the increase in fluorescence at an excitation wavelength of 380 nm and an emission wavelength of 450 nm that results from cleavage of the aniline bond in the substrate by the enzyme. The apparent inhibition constants for the compounds are determined from the enzyme progress curves (Kuzmie, P., K. C. Elrod, et al., Anal Biochem 2000, 286(1), 45-50) and are then used to calculate the inhibition constants for competitive inhibitors.

Sequence of Cathepsin S (P25774 115-331, species assumed): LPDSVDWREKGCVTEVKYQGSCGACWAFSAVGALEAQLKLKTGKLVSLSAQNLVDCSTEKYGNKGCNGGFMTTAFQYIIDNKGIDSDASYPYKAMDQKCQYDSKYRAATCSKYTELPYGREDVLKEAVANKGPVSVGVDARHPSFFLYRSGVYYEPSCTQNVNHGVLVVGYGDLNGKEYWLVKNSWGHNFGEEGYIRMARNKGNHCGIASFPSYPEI
Sequence of Cathepsin L (P07711 114-333, species assumed): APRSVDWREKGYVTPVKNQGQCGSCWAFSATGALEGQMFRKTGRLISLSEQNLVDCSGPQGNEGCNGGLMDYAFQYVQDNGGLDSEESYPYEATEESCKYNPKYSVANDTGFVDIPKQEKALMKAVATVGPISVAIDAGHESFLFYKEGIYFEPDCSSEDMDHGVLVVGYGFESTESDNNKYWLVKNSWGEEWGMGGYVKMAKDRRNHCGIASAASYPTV

| Ki [1] [µM] | Ki [2] [µM] | Ki ([3]; Table II) [µM] | Ki ([3]; Table III) [µM] | Ki [4] [µM] | SMILES |
| --- | --- | --- | --- | --- | --- |
| > 10 | < 10 | < 0.1 | < 0.1 | > 10 | O=C(N[C@H](C(=O)N[C@@H](COCc1ccccc1)CN1CCc2cc(F)ccc21)c1ccc(Cl)cc1Cl)c1ccc(F)c(F)c1 [Compound 211, N-(S)-((3-(benzyloxy)-1-(5-fluoroindolin-1-yl)propan-2-(R)-ylcarbamoyl)(2,4-dichlorophenyl)methyl)-3,4-difluorobenzamide] |
| > 10 | < 1 | < 0.1 | < 0.1 | < 1 | O=C(NC(CCC1CCCCC1)C(=O)NC(COCc1ccccc1)CN1CCc2cc(F)ccc21)c1cc2ccccc2[nH]1 (mixture of isomers) [Compound 41, 1H-Indole-2-carboxylic acid {(1S)-[2-benzyloxy-(1R)-(5-fluoro-2,3-dihydro-indol-1-ylmethyl)-ethylcarbamoyl]-3-cyclohexyl-propyl}-amide] |
